Laboratory results as given in patent US20240034731A1, “AZA-QUINAZOLINE COMPOUNDS AND METHODS OF USE” (Iambic Therapeutics, Inc., priority 2022, published 2024).

Columns and labels:
[1] = target: CDK6/Cyclin D3 (Homo sapiens (Human), UniProt Q00534); experiment: CDK6/Cyclin D3 ADP-Glo Kinase Assay; assay type: biochemical; settings: 100 uM ATP, read-out: CDK6/ CyclinD3 IC50
Method: CDK6/Cyclin D3 ADP-Glo Kinase Assay
The purpose of the CDK6/Cyclin D3 assay is to evaluate the inhibition (% inhibition and IC50 values) in the presence of small molecule inhibitors by using a Luminescent based ADP-Glo assay. CDK6/Cyclin D3 catalyzes the production of ADP from ATP. ADP-Glo assay monitors ADP producing biochemical reactions. ADP-Glo is performed in 2 steps upon completion of kinase reaction: a combined termination of kinase reaction and depletion of remaining ATP in the first step, and conversion of generated ADP to […] and the newly produced ATP to light output using luciferase/luciferin reaction in the second step. The luminescent signal generated is proportional to the ADP concentration produced and is correlated with the kinase activity CDK6/Cyclin D3 was purchased from Carna. […] The assay was initiated with the addition of ATP-containing substrate solution, following a 30-minute pre-incubation of enzyme and inhibitor at room temperature in the reaction mixture. The reaction was stopped after 90 minutes at room temperature by the addition of 10 uL of ADP-GLO Reagent. After a 90-minute incubation, 20 uL of Kinase Detection Reagent was added. Samples were incubated for 40 minutes, after which plate well luminescence was measured on a Envision microplate reader. The IC50 determinations were made from a plot of the fractional velocity as a function of inhibitor concentration fit to the 4 parameters IC50 equation.

[2] = target: CDK1/Cyclin B1 (Homo sapiens (Human), UniProt P06493); experiment: CDK1/Cyclin B1 ADP-Glo Kinase Assay; assay type: biochemical; settings: ADP-Glo, 80 uM ATP; read-out: CDK1 Cyclin B1 IC50
Chain of CDK1/Cyclin B1 (P06493 whole entry): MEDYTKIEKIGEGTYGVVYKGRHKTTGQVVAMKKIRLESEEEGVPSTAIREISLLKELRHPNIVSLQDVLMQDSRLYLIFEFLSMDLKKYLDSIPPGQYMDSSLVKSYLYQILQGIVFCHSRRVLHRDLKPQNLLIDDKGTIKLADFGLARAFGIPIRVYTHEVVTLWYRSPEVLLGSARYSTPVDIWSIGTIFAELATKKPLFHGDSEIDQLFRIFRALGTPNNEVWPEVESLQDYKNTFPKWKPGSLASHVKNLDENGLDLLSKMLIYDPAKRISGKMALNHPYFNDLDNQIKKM
Chain of CDK1/Cyclin B1 (P14635 whole entry partner): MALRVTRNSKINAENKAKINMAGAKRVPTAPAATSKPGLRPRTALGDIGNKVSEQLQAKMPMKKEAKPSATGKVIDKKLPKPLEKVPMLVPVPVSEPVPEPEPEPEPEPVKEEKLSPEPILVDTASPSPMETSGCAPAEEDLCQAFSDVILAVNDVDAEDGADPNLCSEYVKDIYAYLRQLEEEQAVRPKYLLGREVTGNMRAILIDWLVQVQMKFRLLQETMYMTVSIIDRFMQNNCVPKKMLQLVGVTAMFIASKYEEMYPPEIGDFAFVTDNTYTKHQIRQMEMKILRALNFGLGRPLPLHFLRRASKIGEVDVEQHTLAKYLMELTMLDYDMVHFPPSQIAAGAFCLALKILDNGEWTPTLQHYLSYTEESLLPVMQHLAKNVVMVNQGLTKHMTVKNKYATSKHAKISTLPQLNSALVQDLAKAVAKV
Method: CDK1/Cyclin B1 ADP-Glo Kinase Assay
(§1) The purpose of CDK1/Cyclin B1 assay is to evaluate the inhibition (% inhibition and IC50 values) of small molecule inhibitors by using a Luminescent based ADP-Glo assay. CDK1/Cyclin B1 catalyzes the production of ADP from ATP. ADP-Glo assay monitors ADP producing biochemical reactions. ADP-Glo is performed in 2 steps upon completion of kinase reaction: a combined termination of kinase reaction and depletion of remaining ATP in the first step, and conversion of generated ADP to ATP and the newly produced ATP to light output using luciferase/luciferin reaction in the second step. The luminescent signal generated is proportional to the ADP concentration produced and is correlated with the kinase activity. CDK1/Cyclin B1 was purchased from Carna (Cat 04-102). […] The assay was initiated with the addition of ATP-containing substrate solution, following a 30-minute pre-incubation of enzyme and inhibitor at room temperature in the reaction mixture. The reaction was stopped after 90 minutes at room temperature by the addition of 10 uL of ADP-GLO Reagent. After a 90 minute incubation, 20 uL of Kinase Detection Reagent was added. Samples were incubated for 40 minutes, after which plate well luminescence was measured on a Envision microplate reader. The IC50 determinations were made from a plot of the fractional velocity as a function of inhibitor concentration fit to the 4 parameters IC50 equation.

[3] = target: CDK4/Cyclin D1 (Homo sapiens (Human), UniProt P11802); experiment: CDK4/Cyclin D1 CHEF Assay (AQT0258 peptide); assay type: biochemical; settings: 200 uM ATP, read-out: CDK4/ CyclinD1 AQT IC50
Chain of CDK4/Cyclin D1 (P11802 whole entry): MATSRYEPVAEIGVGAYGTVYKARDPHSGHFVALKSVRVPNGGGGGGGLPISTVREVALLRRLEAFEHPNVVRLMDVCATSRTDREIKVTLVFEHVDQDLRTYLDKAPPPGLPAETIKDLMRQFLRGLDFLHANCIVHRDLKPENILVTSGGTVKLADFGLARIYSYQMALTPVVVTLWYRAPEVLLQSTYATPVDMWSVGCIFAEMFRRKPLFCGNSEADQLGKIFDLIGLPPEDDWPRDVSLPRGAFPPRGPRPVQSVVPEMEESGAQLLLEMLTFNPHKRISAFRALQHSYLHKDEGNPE
Chain of CDK4/Cyclin D1 (P24385 whole entry partner): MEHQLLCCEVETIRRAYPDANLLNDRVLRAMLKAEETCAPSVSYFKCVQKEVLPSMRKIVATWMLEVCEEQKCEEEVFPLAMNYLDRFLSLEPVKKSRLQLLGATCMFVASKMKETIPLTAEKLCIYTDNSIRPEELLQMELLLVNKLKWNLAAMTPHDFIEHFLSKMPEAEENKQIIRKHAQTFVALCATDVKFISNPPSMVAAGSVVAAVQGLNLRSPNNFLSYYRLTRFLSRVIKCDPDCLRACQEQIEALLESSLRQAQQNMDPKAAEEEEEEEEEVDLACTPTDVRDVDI
Text: CDK4/Cyclin D1 CHEF Assay
The purpose of CDK4/Cyclin D1 assay is to evaluate the inhibition (% inhibition and IC50 values) of small molecule inhibitors by using a Chelation-Enhance Fluorescence (CHEF) assay. In a CHEF assay, phosphorylation of a peptide substrate results in proportional increase in fluorescence. CHEF kinase assay use peptide substrates containing a synthetic alpha-amino acid with a side chain bearing an 8-hydroxyquinoline derivative (sulfonamido-oxide, Sox). Upon phosphorylation of a nearby serine, threonine or tyrosine and in the presence of Mg(II), the spectral properties of the Sox residue are altered, emitting 485 nm wavelength light when excited with a 360 nm wavelength light source. CDK4/Cyclin D1 catalyzes the phosphoryl transfer to the SOX-labeled substrate peptide AQT0258 from Assayquant Technologies. […] The reaction was initiated with the addition of substrate solution, following a 30-minute pre-incubation of enzyme and inhibitor at 22° C. in the reaction mix. Reactions were allowed to proceed for 3 hrs at 22° C., followed by fluorescence read of the reaction. The IC50 determinations were made from a plot of the fractional velocity as a function of inhibitor concentration fit to the 4 parameters IC50 equation.

[4] = target: CDK2/Cyclin E1 (Homo sapiens (Human), UniProt P24941); experiment: CDK2/Cyclin E1 Full length ADP-Glo Kinase Assay; assay type: biochemical; settings: 20 uM ATP, read-out: CDK2/ CyclinE1 IC50
Method: CDK2/Cyclin E1 Full length ADP-Glo Kinase Assay
as §1, with “of CDK2/Cyclin E1” for “of CDK1/Cyclin B1”, “assay. CDK2/Cyclin E1 full length” for “assay. CDK1/Cyclin B1”, “activity. CDK2/Cyclin E1” for “activity. CDK1/Cyclin B1”, “from Eurofins” for “from Carna”, “(Cat 14-475M).” for “(Cat 04-102).”

[5] = tested on: OVCAR-3 cells; experiment: Cell Growth Inhibition, OVCAR-3 (CellTiterGlo, 6 days); assay type: cell-based; settings: Homo sapiens, 144 h, OVCAR-3, 6-day treatment
Text: (§2) MCF-7 and OVCAR-3 cells were used to evaluate the anti-proliferation activity of the CDK inhibitors. MCF-7 (ATCC, HTB-22) cells are epithelial cells from a patient with ER+ metastatic adenocarcinoma. OVCAR-3 (ATCC, HTB-161) cells were derived from malignant ascites of a patient with ovarian cancer and are known to have CCNE1 amplification. Both cell lines were maintained in RPMI media supplemented with 10% fetal bovine serum. For cell growth inhibition assay, CDK inhibitors in DMSO solution were dispensed with either Echo 655 (Beckman Coulter) or Tecan D300e (HP) into 384-well plates (Corning #3765) and the 384-well plates were UV-sterilized prior to the assay. The inhibitors were typically tested in the 10-10,000 nM concentration range with half-log serial dilutions. MCF-7 or OVCAR-3 (500 cells/30 μL/well) were added to each well using Multidrop Combi (ThermoFisher) using standard cassettes. The assay plates with cells were cultured at 37° C., 5% CO2 for 6 days. At the end of the 6-day treatment, 30 μL of CellTiterGlo 2.0 (Promega) was added to each well and the luminescent signal was read using CLARIOstar plus (BMG). The percentage of cell growth inhibition (% CGI) was calculated using the following formula 00 CGI=100-100×luminescencesampie/luminescencecontroi. The half maximal inhibitory concentration (IC50) was determined by nonlinear curve fitting (four parameters, variable slope).

[6] = tested on: MCF-7 cells; experiment: Cell Growth Inhibition, MCF-7 (CellTiterGlo, 6 days); assay type: cell-based; settings: Homo sapiens, MCF7, 144 h, MCF-7, 6-day treatment
Text: as §2

Chain of CDK6/Cyclin D3 (Q00534 whole entry): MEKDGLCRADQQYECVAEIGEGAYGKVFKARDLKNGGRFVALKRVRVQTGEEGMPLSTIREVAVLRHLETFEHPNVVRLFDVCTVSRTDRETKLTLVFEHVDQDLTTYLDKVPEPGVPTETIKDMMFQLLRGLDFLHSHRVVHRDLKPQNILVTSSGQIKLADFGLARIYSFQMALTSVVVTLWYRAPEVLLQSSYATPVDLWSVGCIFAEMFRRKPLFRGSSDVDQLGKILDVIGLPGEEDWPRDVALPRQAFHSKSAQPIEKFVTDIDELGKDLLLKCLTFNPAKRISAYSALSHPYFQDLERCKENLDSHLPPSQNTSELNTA
Chain of CDK6/Cyclin D3 (P30281 whole entry partner): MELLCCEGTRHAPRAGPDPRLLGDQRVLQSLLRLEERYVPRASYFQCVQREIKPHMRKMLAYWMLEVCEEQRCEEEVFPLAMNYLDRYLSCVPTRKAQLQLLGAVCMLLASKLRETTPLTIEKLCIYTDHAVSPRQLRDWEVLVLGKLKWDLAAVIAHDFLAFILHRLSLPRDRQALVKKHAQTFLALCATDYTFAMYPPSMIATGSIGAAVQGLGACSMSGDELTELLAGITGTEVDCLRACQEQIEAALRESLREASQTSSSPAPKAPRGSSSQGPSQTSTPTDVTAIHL

IC50 [1] [nM]	IC50 [2] [nM]	IC50 [3] [nM]	IC50 [4] [nM]	IC50 [5] [nM]	IC50 [6] [nM]	Structure (SMILES)
< 200	< 200	< 200	< 200			[2H]C([2H])([2H])N1CC2(CN(c3nc(C)cc4cnc(NC5CCN(S(=O)(=O)C6CC6)CC5)nc34)CC2(F)F)C1 [Compound 13, N-(1-(cyclopropylsulfonyl)piperidin-4-yl)-8-(8,8-difluoro-2-(methyl-d3)-2,6-diazaspiro[3.4]octan-6-yl)-6-methylpyrido[3,4-d]pyrimidin-2-amine]
	< 200			500 to 2000	500 to 2000	CS(=O)(=O)N1CCC(Nc2ncc3ccnc(N4C[C@H]5c6ccccc6S(=O)(=O)[C@H]5C4)c3n2)CC1 [Compound 16, (3aR,8bR)-2-(2-((1-(methylsulfonyl)piperidin-4-yl)amino)pyrido[3,4-d]pyrimidin-8-yl)-2,3,3a,8b-tetrahydro-1H-benzo[4,5]thieno[2,3-c]pyrrole 4,4-dioxide]
	> 2000			500 to 2000	500 to 2000	Cc1cc2cnc(NC3CCN(S(C)(=O)=O)CC3)nc2c(N2CC3(C2)CN(C2CC2)C3)n1 [Compound 42, 8-(6-cyclopropyl-2,6-diazaspiro[3.3]heptan-2-yl)-6-methyl-N-(1-(methylsulfonyl)piperidin-4-yl)pyrido[3,4-d]pyrimidin-2-amine]
500 to 2000	> 2000	200 to 500	< 200			Cc1cc2cnc(NC3CCN(S(=O)(=O)C4CC4)CC3)nc2c(N2CC(C#N)(CCF)C2)n1 [Compound 68, 1-(2-((1-(cyclopropylsulfonyl)piperidin-4-yl)amino)-6-methylpyrido[3,4-d]pyrimidin-8-yl)-3-(2-fluoroethyl)azetidine-3-carbonitrile]
< 200	< 200	< 200	< 200			Cc1cc2cnc(NC3CCN(S(C)(=O)=O)CC3)nc2c(C2CC(C)(CO)C2)n1 (stereo not drawn) [Compound 69, (1-methyl-3-(6-methyl-2-((1-(methylsulfonyl)piperidin-4-yl)amino)pyrido[3,4-d]pyrimidin-8-yl)cyclobutyl)methanol]
200 to 500	200 to 500	< 200	< 200			Cc1cc2cnc(NC3CCN(S(C)(=O)=O)CC3)nc2c(N2CC3(CNC(=O)C3)C2)n1 [Compound 81, 2-(6-methyl-2-((1-(methylsulfonyl)piperidin-4-yl)amino)pyrido[3,4-d]pyrimidin-8-yl)-2,6-diazaspiro[3.4]octan-7-one]
200 to 500	200 to 500	200 to 500	< 200			Cc1cc2cnc(NC3CCN(S(C)(=O)=O)CC3)nc2c(N2CC3(CCC(=O)NC3)C2)n1 [Compound 82, 2-(6-methyl-2-((1-(methylsulfonyl)piperidin-4-yl)amino)pyrido[3,4-d]pyrimidin-8-yl)-2,6-diazaspiro[3.5]nonan-7-one]
200 to 500	200 to 500	< 200	< 200			Cc1cc2cnc(NC3CCN(S(C)(=O)=O)CC3)nc2c(N2CC3(CNCC3F)C2)n1 (stereo not drawn) [Compound 98, 8-(8-fluoro-2,6-diazaspiro[3.4]octan-2-yl)-6-methyl-N-(1-(methylsulfonyl)piperidin-4-yl)pyrido[3,4-d]pyrimidin-2-amine]
< 200	< 200	< 200	< 200			Cc1cc2cnc(NC3CCN(S(C)(=O)=O)CC3)nc2c(C2CC3(CNCC3(F)F)C2)n1 (stereo not drawn) [Compound 99, 8-(8,8-difluoro-6-azaspiro[3.4]octan-2-yl)-6-methyl-N-(1-(methylsulfonyl)piperidin-4-yl)pyrido[3,4-d]pyrimidin-2-amine]
< 200	< 200	< 200	< 200			Cc1cc2cnc(NC3CCN(S(C)(=O)=O)CC3)nc2c(N2CC3(CNCC3C(F)F)C2)n1 (stereo not drawn) [Compound 100, 8-(8-(difluoromethyl)-2,6-diazaspiro[3.4]octan-2-yl)-6-methyl-N-(1-(methylsulfonyl)piperidin-4-yl)pyrido[3,4-d]pyrimidin-2-amine]
< 200		< 200				Cc1cc2cnc(NC3CCN(S(C)(=O)=O)CC3)nc2c(N2CC3(CN(C)C[C@@H]3F)C2)n1 [Compound 103, (R)-8-(8-fluoro-6-methyl-2,6-diazaspiro[3.4]octan-2-yl)-6-methyl-N-(1-(methylsulfonyl)piperidin-4-yl)pyrido[3,4-d]pyrimidin-2-amine]
200 to 500		< 200				Cc1cc2cnc(NC3CCN(S(C)(=O)=O)CC3)nc2c(N2CC3(CN(C)C[C@H]3F)C2)n1 [Compound 104, (S)-8-(8-fluoro-6-methyl-2,6-diazaspiro[3.4]octan-2-yl)-6-methyl-N-(1-(methylsulfonyl)piperidin-4-yl)pyrido[3,4-d]pyrimidin-2-amine]
